{
  "source": "paper PMC4823954",
  "about": "“From fighting depression to conquering tumors: a novel tricyclic thiazepine compound as a tubulin polymerization inhibitor” (Cell Death & Disease, 2016)",
  "key": {"[1]": {"tested_on": "H460", "experiment": "Mitochondrial membrane potential (JC-1)", "format": "cell-based, human", "conditions": "H460, 2 μM, 12 h", "method": "(§1) The mitochondrial membrane potential was determined using JC-1 dye (Beyotime, Beijing, China). NSCLC cells (4 × 10^4 cells in 0.5 ml) were seeded in 24-well culture plates. […] Carbonyl cyanide m-chlorophenylhydrazone (CCCP; 10 μM), a mitochondrial membrane disrupter, was used to treat cells for 20 min as a positive control. Then, the cells were incubated with 200 μl JC-1 working solution at 37 °C for 20 min. After the cells were washed in RPMI-1640 medium, they were observed and imaged using a fluorescence microscope (Olympus IX71)."}, "[2]": {"tested_on": "H460TaxR", "experiment": "Mitochondrial membrane potential (JC-1)", "format": "cell-based, human", "conditions": "2 μM, 12 h", "method": "as §1"}, "[3]": {"experiment": "Caco-2 cell bi-directional transport assay", "format": "in vitro ADME", "conditions": "human; for Papp: Caco-2", "excerpt": "As in vivo investigations are generally time consuming and expensive, it is advantageous to eliminate those compounds that are not suitable for animal experiments. One of the necessary steps is to screen the initial hits using assays testing their possible behaviors in vivo. To evaluate the drug-like properties of TBPT, a panel of in vitro assays was preformed (Table 1). The parallel artificial membrane permeability assay (PAMPA) was used to evaluate the cell permeability of the compounds. Compounds with a Pe >[…] are classified as highly permeable. […] The Caco-2 assay was used to predict the oral absorption values of the compounds in vivo. Compounds with a Caco-2 efflux ratio >2 may be subject to active efflux and should not be developed further. […] The half-life (T1/2) in human liver microsomes is used to predict the metabolism properties of compounds in vivo. […] A very long T1/2 (>24 h) increases the risk of cumulative toxicity and is not desirable. […] T1/2 in plasma indicates the stability of the drug in human blood; the high T1/2 values of these compounds indicated better stability in vivo. Plasma protein binding influences the distribution of drugs into body tissues, and compounds with high plasma protein binding (>99%) are limited in terms of the amount of free compound that are available to act on the targeted tissue.\nThe PAMPA and Caco-2 cell bi-directional transport assay of the derivatives were conducted as described in our previous report.[65], [66] The human liver microsome, plasma stability and plasma protein-binding assays were conducted following modified protocols reported by Cyprotex (Macclesfield, UK).[67], [68], [69], [70]"}, "[4]": {"target": "T1, TRPM6 (Homo sapiens, UniProt Q9BX84)", "T1 construct": "purchased DiscoveRx KINOMEscan", "experiment": "KINOMEscan", "format": "binding", "conditions": "read-out: % Ctrl", "method_in_brief": "(§2)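 Competition binding panel of 442 non-mutant kinases: test compound at 5 and 10 μM competed with an active-site-directed ligand for 1 h with shaking. Bound kinase was eluted with 0.5 μM ligand and quantified by qPCR; %Ctrl = (compound − positive control)/(DMSO − positive control) × 100, lower meaning tighter binding.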"}, "[5]": {"target": "T2, PIP5K1A (Homo sapiens, UniProt Q99755)", "T2 construct": "purchased DiscoveRx KINOMEscan", "experiment": "KINOMEscan", "format": "binding", "conditions": "read-out: % Ctrl", "method_in_brief": "as §2"}, "[6]": {"target": "T3, FES (Homo sapiens, UniProt P07332)", "T3 construct": "purchased DiscoveRx KINOMEscan", "experiment": "KINOMEscan", "format": "binding", "conditions": "read-out: % Ctrl", "method_in_brief": "as §2"}, "[7]": {"target": "T4, MLCK (Homo sapiens, UniProt Q32MK0)", "T4 construct": "purchased DiscoveRx KINOMEscan", "experiment": "KINOMEscan", "format": "binding", "conditions": "read-out: % Ctrl", "method_in_brief": "as §2"}, "[8]": {"target": "T5, DDR1 (Homo sapiens, UniProt Q08345)", "T5 construct": "purchased DiscoveRx KINOMEscan", "T5 sequence (Q08345 19-913)": "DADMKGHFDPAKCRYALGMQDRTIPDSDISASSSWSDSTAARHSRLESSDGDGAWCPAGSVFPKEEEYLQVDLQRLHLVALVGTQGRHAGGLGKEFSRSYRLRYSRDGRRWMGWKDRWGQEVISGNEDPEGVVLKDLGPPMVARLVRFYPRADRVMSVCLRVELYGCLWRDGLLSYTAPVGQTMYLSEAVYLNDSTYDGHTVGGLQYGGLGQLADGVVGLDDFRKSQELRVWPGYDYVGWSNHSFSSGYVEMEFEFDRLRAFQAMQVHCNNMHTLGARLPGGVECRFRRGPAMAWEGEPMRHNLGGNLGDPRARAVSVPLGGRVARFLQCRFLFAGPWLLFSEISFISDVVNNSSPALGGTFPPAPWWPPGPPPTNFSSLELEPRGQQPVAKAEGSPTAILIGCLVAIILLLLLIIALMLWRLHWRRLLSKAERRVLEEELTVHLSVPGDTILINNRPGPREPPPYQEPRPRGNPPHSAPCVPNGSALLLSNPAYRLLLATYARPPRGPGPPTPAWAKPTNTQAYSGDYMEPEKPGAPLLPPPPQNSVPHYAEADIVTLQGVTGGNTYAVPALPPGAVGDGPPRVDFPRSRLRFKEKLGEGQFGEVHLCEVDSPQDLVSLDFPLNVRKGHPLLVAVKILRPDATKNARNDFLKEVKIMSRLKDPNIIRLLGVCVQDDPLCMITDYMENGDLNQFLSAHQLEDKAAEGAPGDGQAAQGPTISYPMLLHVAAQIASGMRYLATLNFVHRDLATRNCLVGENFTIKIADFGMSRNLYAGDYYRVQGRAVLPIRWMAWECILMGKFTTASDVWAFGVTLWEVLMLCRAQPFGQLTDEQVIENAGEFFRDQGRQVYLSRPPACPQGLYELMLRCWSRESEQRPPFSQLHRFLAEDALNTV", "experiment": "KINOMEscan", "format": "binding", "conditions": "read-out: % Ctrl", "method_in_brief": "as §2"}, "[9]": {"target": "T6, INSRR (Homo sapiens, UniProt P14616)", "T6 construct": "purchased DiscoveRx KINOMEscan", "T6 sequence (P14616 27-1297)": "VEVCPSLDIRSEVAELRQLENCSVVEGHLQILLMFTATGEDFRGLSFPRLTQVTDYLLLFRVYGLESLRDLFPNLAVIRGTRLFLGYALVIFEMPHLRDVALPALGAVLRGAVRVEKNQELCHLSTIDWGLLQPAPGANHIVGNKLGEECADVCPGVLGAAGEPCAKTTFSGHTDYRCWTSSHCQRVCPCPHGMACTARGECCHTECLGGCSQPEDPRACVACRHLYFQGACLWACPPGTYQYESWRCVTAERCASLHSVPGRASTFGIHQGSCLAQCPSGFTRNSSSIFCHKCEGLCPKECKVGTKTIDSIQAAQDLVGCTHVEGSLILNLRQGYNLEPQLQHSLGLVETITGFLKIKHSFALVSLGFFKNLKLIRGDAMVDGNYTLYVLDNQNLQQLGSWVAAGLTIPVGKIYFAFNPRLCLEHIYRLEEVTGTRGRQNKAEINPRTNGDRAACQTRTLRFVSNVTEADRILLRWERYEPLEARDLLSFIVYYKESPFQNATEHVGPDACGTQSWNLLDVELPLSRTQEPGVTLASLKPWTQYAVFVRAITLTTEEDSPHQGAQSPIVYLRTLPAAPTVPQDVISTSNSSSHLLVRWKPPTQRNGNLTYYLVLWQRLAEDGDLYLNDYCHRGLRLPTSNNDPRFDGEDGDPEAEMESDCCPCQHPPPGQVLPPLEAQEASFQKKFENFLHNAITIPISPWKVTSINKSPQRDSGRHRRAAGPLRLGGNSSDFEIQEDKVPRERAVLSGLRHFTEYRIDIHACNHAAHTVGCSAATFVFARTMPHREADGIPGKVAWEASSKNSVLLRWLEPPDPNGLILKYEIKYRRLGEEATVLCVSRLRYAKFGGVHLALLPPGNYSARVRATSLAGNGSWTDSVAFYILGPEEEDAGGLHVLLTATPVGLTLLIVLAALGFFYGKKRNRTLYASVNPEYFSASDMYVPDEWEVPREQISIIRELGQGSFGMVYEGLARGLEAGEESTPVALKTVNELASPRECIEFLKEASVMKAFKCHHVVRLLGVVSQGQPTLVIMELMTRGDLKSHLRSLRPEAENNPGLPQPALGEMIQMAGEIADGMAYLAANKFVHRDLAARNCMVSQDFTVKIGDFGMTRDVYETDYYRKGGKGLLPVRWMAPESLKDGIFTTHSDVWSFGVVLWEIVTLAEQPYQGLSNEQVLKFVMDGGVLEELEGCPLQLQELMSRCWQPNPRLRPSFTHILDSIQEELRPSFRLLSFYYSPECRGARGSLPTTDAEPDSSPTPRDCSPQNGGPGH", "experiment": "KINOMEscan", "format": "binding", "conditions": "read-out: % Ctrl", "method_in_brief": "as §2"}, "[10]": {"target": "T7, STK16 (Homo sapiens, UniProt O75716)", "T7 construct": "purchased DiscoveRx KINOMEscan", "experiment": "KINOMEscan", "format": "binding", "conditions": "read-out: % Ctrl", "method_in_brief": "as §2"}, "[11]": {"target": "T8, MAP4K5 (Homo sapiens, UniProt Q9Y4K4)", "T8 construct": "purchased DiscoveRx KINOMEscan", "experiment": "KINOMEscan", "format": "binding", "conditions": "read-out: % Ctrl", "method_in_brief": "as §2"}, "[12]": {"target": "T9, YANK2 (Homo sapiens, UniProt Q9NY57)", "T9 construct": "purchased DiscoveRx KINOMEscan", "experiment": "KINOMEscan", "format": "binding", "conditions": "read-out: % Ctrl", "method_in_brief": "as §2"}, "[13]": {"target": "T10, PIP5K1C (Homo sapiens, UniProt O60331)", "T10 construct": "purchased DiscoveRx KINOMEscan", "experiment": "KINOMEscan", "format": "binding", "conditions": "read-out: % Ctrl", "method_in_brief": "as §2"}, "[14]": {"target": "T11, HIPK2 (Homo sapiens, UniProt Q9H2X6)", "T11 construct": "purchased DiscoveRx KINOMEscan", "experiment": "KINOMEscan", "format": "binding", "conditions": "read-out: % Ctrl", "method_in_brief": "as §2"}, "[15]": {"target": "T12, BTK (Homo sapiens, UniProt Q06187)", "T12 construct": "purchased DiscoveRx KINOMEscan", "experiment": "KINOMEscan", "format": "binding", "conditions": "read-out: % Ctrl", "method_in_brief": "as §2"}, "[16]": {"target": "T13, CDC2L5 (Homo sapiens, UniProt Q14004)", "T13 construct": "purchased DiscoveRx KINOMEscan", "experiment": "KINOMEscan", "format": "binding", "conditions": "read-out: % Ctrl", "method_in_brief": "as §2"}, "[17]": {"target": "T14, MAP3K2 (Homo sapiens, UniProt Q9Y2U5)", "T14 construct": "purchased DiscoveRx KINOMEscan", "experiment": "KINOMEscan", "format": "binding", "conditions": "read-out: % Ctrl", "method_in_brief": "as §2"}, "[18]": {"target": "T15, KIT(D816V) (Homo sapiens, UniProt P10721, D816V)", "T15 construct": "purchased DiscoveRx KINOMEscan", "T15 sequence (P10721 26-976 D816V)": "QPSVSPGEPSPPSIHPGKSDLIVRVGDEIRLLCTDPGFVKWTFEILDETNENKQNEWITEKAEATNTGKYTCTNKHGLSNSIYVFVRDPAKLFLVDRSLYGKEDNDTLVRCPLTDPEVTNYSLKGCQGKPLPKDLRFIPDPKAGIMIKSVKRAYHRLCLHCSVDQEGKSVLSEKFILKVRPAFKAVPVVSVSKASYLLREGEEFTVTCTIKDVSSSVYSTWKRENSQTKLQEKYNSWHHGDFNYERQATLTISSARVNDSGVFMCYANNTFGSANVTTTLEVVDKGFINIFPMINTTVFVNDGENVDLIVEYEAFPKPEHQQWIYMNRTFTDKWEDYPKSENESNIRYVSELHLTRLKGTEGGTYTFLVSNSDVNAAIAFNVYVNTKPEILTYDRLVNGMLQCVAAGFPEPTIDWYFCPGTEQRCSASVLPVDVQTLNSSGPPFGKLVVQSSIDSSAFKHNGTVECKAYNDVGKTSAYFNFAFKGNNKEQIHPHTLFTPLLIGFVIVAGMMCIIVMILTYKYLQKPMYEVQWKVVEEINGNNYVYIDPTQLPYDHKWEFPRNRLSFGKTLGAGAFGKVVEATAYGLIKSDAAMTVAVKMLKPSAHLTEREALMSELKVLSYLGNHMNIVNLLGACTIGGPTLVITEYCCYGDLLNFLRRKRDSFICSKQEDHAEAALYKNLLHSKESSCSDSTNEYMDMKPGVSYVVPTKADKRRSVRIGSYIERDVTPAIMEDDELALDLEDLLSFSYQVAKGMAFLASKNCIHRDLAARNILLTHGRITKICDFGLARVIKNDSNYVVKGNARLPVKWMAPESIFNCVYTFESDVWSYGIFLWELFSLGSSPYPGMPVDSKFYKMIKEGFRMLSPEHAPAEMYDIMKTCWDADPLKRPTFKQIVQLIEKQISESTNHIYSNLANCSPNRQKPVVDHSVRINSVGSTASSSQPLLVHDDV", "experiment": "KINOMEscan", "format": "binding", "conditions": "read-out: % Ctrl"}, "[19]": {"target": "T16, FGFR1 (Homo sapiens, UniProt P11362)", "T16 construct": "purchased DiscoveRx KINOMEscan", "T16 sequence (P11362 22-822)": "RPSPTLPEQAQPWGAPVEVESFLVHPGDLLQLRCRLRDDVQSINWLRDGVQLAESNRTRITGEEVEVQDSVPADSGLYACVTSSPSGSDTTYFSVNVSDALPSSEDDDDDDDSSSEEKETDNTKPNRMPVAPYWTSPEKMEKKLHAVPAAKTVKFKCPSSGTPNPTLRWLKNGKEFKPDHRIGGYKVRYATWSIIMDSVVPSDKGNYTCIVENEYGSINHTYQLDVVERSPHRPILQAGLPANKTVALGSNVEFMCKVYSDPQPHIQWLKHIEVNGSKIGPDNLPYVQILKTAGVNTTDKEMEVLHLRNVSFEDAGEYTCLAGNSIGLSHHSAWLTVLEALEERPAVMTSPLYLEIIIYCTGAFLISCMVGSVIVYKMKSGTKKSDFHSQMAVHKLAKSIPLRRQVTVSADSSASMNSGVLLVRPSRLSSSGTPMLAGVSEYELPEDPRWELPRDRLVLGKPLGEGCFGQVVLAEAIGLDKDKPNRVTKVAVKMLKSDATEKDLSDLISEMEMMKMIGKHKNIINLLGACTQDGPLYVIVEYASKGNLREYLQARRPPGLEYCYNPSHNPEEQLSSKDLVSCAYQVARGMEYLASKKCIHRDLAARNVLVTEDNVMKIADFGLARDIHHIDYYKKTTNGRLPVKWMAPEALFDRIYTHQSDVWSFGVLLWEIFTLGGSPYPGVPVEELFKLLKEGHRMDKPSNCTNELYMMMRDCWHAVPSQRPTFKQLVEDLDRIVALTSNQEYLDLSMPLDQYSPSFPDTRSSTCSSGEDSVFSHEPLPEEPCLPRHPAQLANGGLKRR", "experiment": "KINOMEscan", "format": "binding", "conditions": "read-out: % Ctrl", "method_in_brief": "as §2"}, "[20]": {"target": "T17, PKAC-beta (Homo sapiens, UniProt P22694)", "T17 construct": "purchased DiscoveRx KINOMEscan", "experiment": "KINOMEscan", "format": "binding", "conditions": "read-out: % Ctrl", "method_in_brief": "as §2"}, "[21]": {"target": "T18, EGFR(L747-E749del, A750P) (Homo sapiens, UniProt P00533, A750P/DEL747-749)", "T18 construct": "purchased DiscoveRx KINOMEscan", "T18 sequence (P00533 with tags, fused parts or gaps DEL747-749/A750P limits assumed)": "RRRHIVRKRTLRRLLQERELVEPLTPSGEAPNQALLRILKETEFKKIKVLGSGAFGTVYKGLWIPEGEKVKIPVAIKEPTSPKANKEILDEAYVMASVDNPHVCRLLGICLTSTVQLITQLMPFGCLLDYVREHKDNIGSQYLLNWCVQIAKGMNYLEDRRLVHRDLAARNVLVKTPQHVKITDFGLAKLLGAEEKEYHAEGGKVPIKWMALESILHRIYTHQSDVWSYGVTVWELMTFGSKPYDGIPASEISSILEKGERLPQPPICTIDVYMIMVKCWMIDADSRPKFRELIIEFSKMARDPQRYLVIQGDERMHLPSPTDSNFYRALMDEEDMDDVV", "experiment": "KINOMEscan", "format": "binding", "conditions": "read-out: % Ctrl"}},
  "note": "Read-outs that look alike come from different tables or passages of the source.",
  "data": [
    {"smiles": "Cc1ccc(C2=Nc3cccnc3S(=O)(=O)c3ccccc32)cc1", "note": "[TBPT, 6-(p-tolyl)benzo[f] pyrido[2,3-b][1,4] thiazepine 11,11-dioxide]", "values": [
      {"measurement": "mitochondrial membrane potential", "setting": "[1]", "result": "decreased significantly"},
      {"measurement": "mitochondrial membrane potential", "setting": "[2]", "result": "decreased significantly"},
      {"measurement": "efflux ratio", "setting": "[3]; Caco-2, Caco-2, read-out: Efflux ratio (B2A/A2B)", "result": "0.4 to 0.8"},
      {"measurement": "Papp", "setting": "[3]; read-out: Caco-2 Papp A/B", "result": "34.5 ± 2.06", "unit": "×10⁻⁶ cm/s"},
      {"measurement": "Papp", "setting": "[3]; read-out: Caco-2 Papp B/A", "result": "20.6 ± 7", "unit": "×10⁻⁶ cm/s"},
      {"measurement": "remaining binding at 5 µM", "setting": "[4]; 5 μM", "result": 100, "unit": "%"},
      {"measurement": "remaining binding at 10 µM", "setting": "[4]; 10 μM", "result": 85, "unit": "%"},
      {"measurement": "remaining binding at 5 µM", "setting": "[5]; 5 μM", "result": 98, "unit": "%"},
      {"measurement": "remaining binding at 10 µM", "setting": "[5]; 10 μM", "result": 100, "unit": "%"},
      {"measurement": "remaining binding at 5 µM", "setting": "[6]; 5 μM", "result": 100, "unit": "%"},
      {"measurement": "remaining binding at 10 µM", "setting": "[6]; 10 μM", "result": 98, "unit": "%"},
      {"measurement": "remaining binding at 5 µM", "setting": "[7]; 5 μM", "result": 92, "unit": "%"},
      {"measurement": "remaining binding at 10 µM", "setting": "[7]; 10 μM", "result": 95, "unit": "%"},
      {"measurement": "remaining binding at 5 µM", "setting": "[8]; 5 μM", "result": 100, "unit": "%"},
      {"measurement": "remaining binding at 10 µM", "setting": "[8]; 10 μM", "result": 92, "unit": "%"},
      {"measurement": "remaining binding at 5 µM", "setting": "[9]; 5 μM", "result": 100, "unit": "%"},
      {"measurement": "remaining binding at 10 µM", "setting": "[9]; 10 μM", "result": 100, "unit": "%"},
      {"measurement": "remaining binding at 5 µM", "setting": "[10]; 5 μM", "result": 99, "unit": "%"},
      {"measurement": "remaining binding at 10 µM", "setting": "[10]; 10 μM", "result": 91, "unit": "%"},
      {"measurement": "remaining binding at 5 µM", "setting": "[11]; 5 μM", "result": 100, "unit": "%"},
      {"measurement": "remaining binding at 10 µM", "setting": "[11]; 10 μM", "result": 85, "unit": "%"},
      {"measurement": "remaining binding at 5 µM", "setting": "[12]; 5 μM", "result": 99, "unit": "%"},
      {"measurement": "remaining binding at 10 µM", "setting": "[12]; 10 μM", "result": 100, "unit": "%"},
      {"measurement": "remaining binding at 5 µM", "setting": "[13]; 5 μM", "result": 100, "unit": "%"},
      {"measurement": "remaining binding at 10 µM", "setting": "[13]; 10 μM", "result": 94, "unit": "%"},
      {"measurement": "remaining binding at 5 µM", "setting": "[14]; 5 μM", "result": 100, "unit": "%"},
      {"measurement": "remaining binding at 10 µM", "setting": "[14]; 10 μM", "result": 100, "unit": "%"},
      {"measurement": "remaining binding at 5 µM", "setting": "[15]; 5 μM", "result": 91, "unit": "%"},
      {"measurement": "remaining binding at 10 µM", "setting": "[15]; 10 μM", "result": 83, "unit": "%"},
      {"measurement": "remaining binding at 5 µM", "setting": "[16]; 5 μM", "result": 100, "unit": "%"},
      {"measurement": "remaining binding at 10 µM", "setting": "[16]; 10 μM", "result": 97, "unit": "%"},
      {"measurement": "remaining binding at 5 µM", "setting": "[17]; 5 μM", "result": 82, "unit": "%"},
      {"measurement": "remaining binding at 10 µM", "setting": "[17]; 10 μM", "result": 100, "unit": "%"},
      {"measurement": "remaining binding at 5 µM", "setting": "[18]; 5 μM", "result": 62, "unit": "%"},
      {"measurement": "remaining binding at 10 µM", "setting": "[18]; 10 μM", "result": 99, "unit": "%"},
      {"measurement": "remaining binding at 5 µM", "setting": "[19]; 5 μM", "result": 98, "unit": "%"},
      {"measurement": "remaining binding at 10 µM", "setting": "[19]; 10 μM", "result": 100, "unit": "%"},
      {"measurement": "remaining binding at 5 µM", "setting": "[20]; 5 μM", "result": 96, "unit": "%"},
      {"measurement": "remaining binding at 10 µM", "setting": "[20]; 10 μM", "result": 100, "unit": "%"},
      {"measurement": "remaining binding at 5 µM", "setting": "[21]; 5 μM", "result": 91, "unit": "%"},
      {"measurement": "remaining binding at 10 µM", "setting": "[21]; 10 μM", "result": 91, "unit": "%"}
    ]}
  ]
}
